Measurements reported in patent US20240116985A1, “STAPLED PEPTIDES AND METHODS THEREOF” (priority 2020, published 2024).

These compounds were tested against T1, full-length beta-Catenin (Uniprot ID P35222) (Homo sapiens, UniProt P35222) (assay: Fluorescence polarization IC50 (beta-catenin / 5FAM-TCF4 10-53 competition)). Conditions: fluorescence polarization; read-out: beta-Catenin FP IC50.
T1 construct: 10 nM full-length beta-Catenin (Uniprot ID P35222)
T1 sequence (P35222 1-781): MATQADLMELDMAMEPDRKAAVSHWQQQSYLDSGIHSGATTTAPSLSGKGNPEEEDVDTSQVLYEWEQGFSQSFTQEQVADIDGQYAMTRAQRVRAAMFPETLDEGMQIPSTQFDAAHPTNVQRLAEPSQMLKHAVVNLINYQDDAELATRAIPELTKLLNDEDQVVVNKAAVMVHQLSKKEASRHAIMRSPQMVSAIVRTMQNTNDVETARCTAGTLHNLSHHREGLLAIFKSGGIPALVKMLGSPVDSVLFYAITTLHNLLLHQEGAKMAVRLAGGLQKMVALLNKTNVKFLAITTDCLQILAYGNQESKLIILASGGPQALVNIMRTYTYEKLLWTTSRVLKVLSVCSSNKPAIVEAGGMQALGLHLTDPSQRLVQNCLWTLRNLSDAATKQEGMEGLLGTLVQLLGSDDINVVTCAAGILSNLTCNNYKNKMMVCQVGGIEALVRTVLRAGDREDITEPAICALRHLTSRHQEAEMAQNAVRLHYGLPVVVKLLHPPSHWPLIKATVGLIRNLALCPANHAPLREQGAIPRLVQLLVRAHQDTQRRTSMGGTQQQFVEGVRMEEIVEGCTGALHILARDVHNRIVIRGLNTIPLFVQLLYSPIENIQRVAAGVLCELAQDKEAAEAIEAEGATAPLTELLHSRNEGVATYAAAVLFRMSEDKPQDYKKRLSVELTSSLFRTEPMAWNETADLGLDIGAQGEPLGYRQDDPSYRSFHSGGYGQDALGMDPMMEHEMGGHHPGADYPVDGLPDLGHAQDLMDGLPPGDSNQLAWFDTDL
Format: binding

| Compound | IC50 [µM] |
| --- | --- |
| CC(=O)N1CCC[C@]12CC=CCCCC1(CCCC=CCCCOC(=O)N3CC[C@@](C(=O)N[C@@H](Cc4ccsc4)C(=O)N[C@@H](Cc4csc5ccccc45)C(=O)N[C@@H](Cc4c[nH]c5ccccc45)C(N)=O)(C3)NC(=O)[C@H](CC(N)=O)NC(=O)[C@H](Cc3ccccc3)NC(=O)[C@H](C)NC(=O)[C@H](C)NC(=O)[C@H]([C@@H](C)O)NC(=O)[C@H](CC(N)=O)NC1=O)NC(=O)[C@H](CC(C)(C)C)NC(=O)[C@H](CC(=O)O)NC2=O (stereo partly drawn) [I-2138, Ac-PL3-Asp-Npg-B5-Asn-Thr-Ala-Ala-Phe-Asn-PyrS2-3Thi-BztA-Trp-NH2] | 1.01 |
| CC(=O)N1CCC[C@]12CC=CCCCC1(CCCC=CCCOC(=O)N3CC[C@@](C(=O)N[C@@H](Cc4ccsc4)C(=O)N[C@@H](Cc4csc5ccccc45)C(=O)N[C@@H](CCC(N)=O)C(N)=O)(C3)NC(=O)[C@H](CC(N)=O)NC(=O)[C@H](Cc3ccccc3)NC(=O)[C@H](C)NC(=O)[C@H](C)NC(=O)[C@H]([C@@H](C)O)NC(=O)[C@H](CC(N)=O)NC1=O)NC(=O)[C@H](CC(C)(C)C)NC(=O)[C@H](CC(=O)O)NC2=O (stereo partly drawn) [I-2197, Ac-PL3-Asp-Npg-B5-Asn-Thr-Ala-Ala-Phe-Asn-PyrS1-3Thi-BztA-Gln-NH2] | 2.45 |
| CC(=O)N1CCC[C@]12CC=CCCCC1(CCCC=CCCCOC(=O)N3CC[C@@](C(=O)N[C@@H](Cc4ccccc4Cl)C(=O)N[C@@H](Cc4csc5ccccc45)C(=O)N[C@@H](CCC(N)=O)C(N)=O)(C3)NC(=O)[C@H](CC(N)=O)NC(=O)[C@H](Cc3ccccc3)NC(=O)[C@H](C)NC(=O)[C@H](C)NC(=O)[C@H]([C@@H](C)O)NC(=O)[C@H](CC(N)=O)NC1=O)NC(=O)[C@H](CC(C)(C)C)NC(=O)[C@H](CC(=O)O)NC2=O (stereo partly drawn) [I-1998, Ac-PL3-Asp-Npg-B5-Asn-Thr-Ala-Ala-Phe-Asn-PyrS2-2C1F-BztA-Gln-NH2] | 0.732 |
| CC(=O)N1CCC[C@]12CC=CCCCC1(CCCC=CCCOC(=O)N3CC[C@@](C(=O)N[C@@H](Cc4ccsc4)C(=O)N[C@@H](Cc4csc5ccccc45)C(=O)N[C@@H](CCC(N)=O)C(N)=O)(C3)NC(=O)[C@H](CC(N)=O)NC(=O)[C@H](Cc3ccccc3)NC(=O)[C@H](C)NC(=O)[C@H](C)NC(=O)[C@H]([C@@H](C)O)NC(=O)[C@H](CC(N)=O)NC1=O)NC(=O)[C@H](CC(C)(C)C)NC(=O)[C@H](CC(=O)O)NC2=O (stereo partly drawn) [I-2198, Ac-PL3-Asp-Npg-B5-Asn-Thr-Ala-Ala-Phe-Asn-PyrS1-3Thi-BztA-Gln-NH2] | 1.47 |
| CC(=O)N1CCC[C@]12CC=CCCCC1(CCCC=CCCCOC(=O)N3CC[C@@](C(=O)N[C@@H](Cc4cccc(Cl)c4)C(=O)N[C@@H](Cc4csc5ccccc45)C(=O)N[C@@H](CCO)C(N)=O)(C3)NC(=O)[C@H](CC(N)=O)NC(=O)[C@H](Cc3ccccc3)NC(=O)[C@H](C)NC(=O)[C@H](CCCCNC(C)C)NC(=O)[C@H](CCC(N)=O)NC(=O)[C@H](CC(=O)O)NC1=O)NC(=O)[C@H](CC1CCCCC1)NC(=O)[C@H](CC(N)=O)NC2=O (stereo partly drawn) [I-1928, Ac-PL3-Asn-Cha-B5-Asp-Gln-iPrLys-Ala-Phe-Asn-PyrS2-3C1F-BztA-Hse-NH2] | 0.887 |
| CC(=O)N1CCC[C@]12CCCCCCC1(CCCCCCCCOC(=O)N3CC[C@@](C(=O)N[C@@H](Cc4ccsc4)C(=O)N[C@@H](Cc4csc5ccccc45)C(=O)N[C@@H](CCC(N)=O)C(N)=O)(C3)NC(=O)[C@H](CC(C)C)NC(=O)[C@H](Cc3ccccc3)NC(=O)[C@H](C)NC(=O)[C@H](CCCCNC(C)C)NC(=O)[C@H](CCC(N)=O)NC(=O)[C@H](CC(=O)O)NC1=O)NC(=O)[C@H](CC1CCCCC1)NC(=O)[C@H](CC(N)=O)NC2=O (stereo partly drawn) [I-2452, Ac-PL3-Asn-Cha-B5-Asp-Gln-iPrLys-Ala-Phe-Leu-PyrS2-3Thi-BztA-Gln-NH2] | 7.2 |

Stronger by IC50, values ahead:

| IC50 [µM] | Compound |
| --- | --- |
| 0.608 | CC(C)C[C@H](NC(=O)[C@]12CCN(C1)C(=O)OCCCCCCCCC1(CCCCCCCC(=O)N3CCC[C@@]3(C)C(=O)N[C@@H](CC(=O)O)C(=O)N1)C(=O)N[C@@H](C)C(=O)N[C@@H](CC(=O)O)C(=O)N[C@@H](Cc1cccc(C(=O)O)c1)C(=O)N[C@@H](C)C(=O)N[C@@H](C)C(=O)N[C@@H](Cc1ccccc1)C(=O)N2)C(=O)N[C@@H](Cc1ccsc1)C(=O)N[C@@H](Cc1csc2ccccc12)C(=O)N[C@@H](CCC(N)=O)C(N)=O (stereo partly drawn) [I-2605, 4pentenyl-MePro-Asp-B5-Ala-Asp-3COOHF-Ala-Ala-Phe-PyrS2-Leu-3Thi-BztA-Gln-NH2] |
| 0.044 | CCCCOC(=O)N1CCC[C@]12CC=CCCCC1(CCCC=CCCCOC(=O)N3CC[C@@](C(=O)N[C@@H](Cc4ccsc4)C(=O)N[C@@H](Cc4csc5ccccc45)C(=O)N[C@@H](Cc4c[nH]cn4)C(N)=O)(C3)NC(=O)[C@H](CCC(N)=O)NC(=O)[C@H](Cc3ccccc3)NC(=O)[C@H](C)NC(=O)[C@H](C)NC(=O)[C@H](CC(=O)O)NC(=O)[C@H](CC(=O)O)NC1=O)NC(=O)[C@H](CC(C)(C)C)NC(=O)[C@H](CC(=O)O)NC2=O (stereo partly drawn) [I-2363, CO2Bu-PL3-Asp-Npg-B5-Asp-Asp-Ala-Ala-Phe-Gln-PyrS2-3Thi-BztA-His-NH2] |
| 0.01 | CC(=O)N1CCC[C@]12CC=CCCCC1(CCCC=CCCCOC(=O)N3CC[C@@](C(=O)N[C@@H](Cc4ccsc4)C(=O)N[C@@H](Cc4csc5ccccc45)C(=O)N[C@@H](CCC(N)=O)C(N)=O)(C3)NC(=O)[C@H](Cn3cc(CN4CCNCC4)nn3)NC(=O)[C@H](Cc3ccccc3)NC(=O)[C@H](C)NC(=O)[C@H](C)NC(=O)[C@H](CN(CC(=O)O)CC(F)(F)F)NC(=O)[C@H](CC(=O)O)NC1=O)NC(=O)[C@H](CC(C)(C)C)NC(=O)[C@H](CC(=O)O)NC2=O (stereo partly drawn) [I-1863, Ac-PL3-Asp-Npg-B5-Asp-TfeGA-Ala-Ala-Phe-[CH2Ppz]TriAzDap-PyrS2-3Thi-BztA-Gln-NH2] |
| 0.55 | CC(=O)N1CCC[C@]12CC=CCCCC1(CCCC=CCCCOC(=O)N3CC[C@@](C(=O)N[C@@H](Cc4ccsc4)C(=O)N[C@@H](Cc4csc5ccccc45)C(=O)N[C@@H](CCC(N)=O)C(N)=O)(C3)NC(=O)[C@H](CC(C)C)NC(=O)[C@H](Cc3ccccc3)NC(=O)[C@H](C)NC(=O)[C@H](C)NC(=O)[C@H](CC(=O)O)NC(=O)[C@H](CC(=O)O)NC1=O)NC(=O)[C@H](CC(C)(C)C)NC(=O)[C@H](CO)NC2=O (stereo partly drawn) [I-1223, Ac-PL3-Ser-Npg-B5-Asp-Asp-Ala-Ala-Phe-Leu-PyrS2-3Thi-BztA-Gln-NH2] |
| 0.609 | CC(=O)N1CCC[C@]12CC=CCCCC1(CCCC=CCCCOC(=O)N3CC[C@@](C(=O)N[C@@H](Cc4ccccc4)C(=O)N[C@@H](Cc4csc5ccccc45)C(=O)N[C@@H](CC(=O)N4CCOCC4)C(N)=O)(C3)NC(=O)[C@H](CC(C)C)NC(=O)[C@H](Cc3ccccc3)NC(=O)[C@H](C)NC(=O)[C@H](CCCCNS(C)(=O)=O)NC(=O)[C@H](CCC(N)=O)NC(=O)[C@H](CC(=O)O)NC1=O)NC(=O)[C@H](CC1CCCCC1)NC(=O)[C@H](CC(N)=O)NC2=O (stereo partly drawn) [I-2524, Ac-PL3-Asn-Cha-B5-Asp-Gln-[MeSO2]Lys-Ala-Phe-Leu-PyrS2-Phe-BztA-MorphAsn-NH2] |
| 0.045 | CC(=O)N1CC2CC1C(=O)N[C@@H](CC(=O)O)C(=O)N[C@@H](CC(C)(C)C)C(=O)NC1(CCCC=CCCCOC(=O)N3CC[C@@](C(=O)N[C@@H](Cc4ccsc4)C(=O)N[C@@H](Cc4csc5ccccc45)C(=O)N[C@@H](CCC(N)=O)C(N)=O)(C3)NC(=O)[C@H](CC(C)C)NC(=O)[C@H](Cc3ccccc3)NC(=O)[C@H](C)NC(=O)[C@H](C)NC(=O)[C@H](CN(CC(=O)O)CC(F)(F)F)NC(=O)[C@H](CC(=O)O)NC1=O)CCCC=CCCC(=O)O2 (stereo partly drawn) [I-2264, Ac-HypEs5-Asp-Npg-B5-Asp-TfeGA-Ala-Ala-Phe-Leu-PyrS2-3Thi-BztA-Gln-NH2] |
